Laboratory results from US20220117938A1, “COMBINATON THERAPY WITH A DON PRODRUG AND AN IMMUNE CHECKPOINT INHIBITOR” (DRACEN PHARMACEUTICALS, INC., priority 2019, published 2022).

Tested on: Cells
Experiment: Cell viability, CTG luminescence, 72 h (Example 7, Experiment 1)
Assay type: cell-based
Experimental: Cells were cultured in the appropriate medium at 37° C. and 5% CO2 atmosphere. Cells were harvested by trypsinization, spun at 800 rpm for 5 min and resuspended in medium. The cell concentration was adjusted with medium and seeded at a cell density of 3000 cells in 90 μL per well in 96-well plates, and incubated overnight at 37° C. and 5% CO2. After 24 hours, the 1 mM test compound (either Compound 1 or DON) was successively diluted into 7 concentrations according to a three-fold gradient respectively, and 10 μl/well drug was added. The final concentrations were 100 μM, 33.33 μM, 11.11 μM, 3.7 μM, 1.24 μM, 0.41 μM, 0.14 μM, and 0.046 μM. The 100 μM Positive Control drug was successively diluted in 7 concentrations according to a three-fold gradient, and 10 μl/well drug was added. The final concentrations were 10 μM, 3.333 μM, 1.111 μM, 0.37 μM, 0.124 μM, 0.041 μM, 0.014 μM and 0.0046 μM. Cells were incubated for 72 h at 37° C. and 5% CO2. 100 μL CTG reagent was then added to each well. Plates were shaken for 2 min and placed 10 min at room temperature. Luminescence was recorded on Perkin Elmer Envision 2104 Multilabel Reader. IC50's were obtained by fitting curve using GraphPad Prism5 software. In all cases the treatment time was 72 h.

[1] = Homo sapiens, BT-474, 72 h, BT-474
[2] = Homo sapiens, BT-549, 72 h, BT-549
[3] = Homo sapiens, CAPAN-1, 72 h, Capan-1
[4] = Homo sapiens, HCC1395, 72 h, HCC1395
[5] = Homo sapiens, HCC1806, 72 h, HCC1806
[6] = Homo sapiens, HCC1937, 72 h, HCC1937
[7] = Homo sapiens, HCC1954, 72 h, HCC1954
[8] = Homo sapiens, HGC-27, 72 h, HGC-27
[9] = Homo sapiens, HL-60, 72 h, HL60
[10] = Homo sapiens, Huh-7, 72 h, HuH-7
[11] = Homo sapiens, KARPAS-299, 72 h, KARPAS-299
[12] = Homo sapiens, KATO III, KATO-III
[13] = Homo sapiens, LN-18, 72 h, LN-18
[14] = Homo sapiens, MDA-MB-231, 72 h, MDA-MB-231
[15] = Homo sapiens, MDA-MB-361, 72 h, MDA-MB-361
[16] = Homo sapiens, MKN-45, 72 h, MKN-45
[17] = Homo sapiens, MOLT-4, 72 h, MOLT-4
[18] = Homo sapiens, NCI-H23, 72 h, NCI-H23
[19] = Homo sapiens, NCI-H226, 72 h, NCI-H226
[20] = Homo sapiens, NCI-H358, 72 h, NCI-H358
[21] = Homo sapiens, NCI-H661, 72 h, NCI-H661
[22] = Homo sapiens, NCI-H929, 72 h, NCI-H929
[23] = Homo sapiens, NCI-H1299, 72 h, NCI-H1299
[24] = Homo sapiens, NCI-H1650, 72 h, NCI-H1650
[25] = Homo sapiens, OVCAR-3, 72 h, OVCAR-3
[26] = Homo sapiens, RPMI-7951, 72 h, RPMI-7951
[27] = Homo sapiens, SK-MES-1, 72 h, SK-MES-1
[28] = Homo sapiens, SNB-19, 72 h, SNB-19
[29] = Homo sapiens, SNU-449, 72 h, SNU-449
[30] = Homo sapiens, SW480, 72 h, SW480
[31] = Homo sapiens, U-937, 72 h, U-937
[32] = Homo sapiens, ZR-75-1, 72 h, ZR-75-1
[33] = Homo sapiens, ZR-75-30, 72 h, ZR-75-30

CC(=O)N[C@@H](Cc1c[nH]c2ccccc12)C(=O)N[C@@H](CCC(=O)C=[N+]=[N-])C(=O)OC(C)C [Compound 1, Isopropyl (S)-2-((S)-2-acetamido-3-(1H-indol-3-yl)propanamido)-6-diazo-5-oxohexanoate]
IC50 (AGS): 19.9 µM
IC50 (C3A): 8.39 µM
IC50 (Homo sapiens, 143B): 2.44 µM
IC50 (Homo sapiens, 769-P): 2.08 µM
IC50 [1]: 9.8 µM
IC50 [2]: 30.8 µM
IC50 [3]: 29.3 µM
IC50 (Homo sapiens, Daudi): 1.07 µM
IC50 [4]: 59.8 µM
IC50 [5]: 3.86 µM
IC50 [6]: 156 µM
IC50 [7]: 3.33 µM
IC50 [8]: 13.3 µM
IC50 [9]: 2.03 µM
IC50 [10]: 1.27 µM
IC50 (Homo sapiens, Jurkat): 0.656 µM
IC50 [11]: 0.636 µM
IC50 [12]: 10.7 µM
IC50 [13]: 4.15 µM
IC50 [14]: 2.88 µM
IC50 [15]: 117 µM
IC50 (Homo sapiens, MDA-MB-435S): 45.4 µM
IC50 [16]: 1.65 µM
IC50 [17]: 3.03 µM
IC50 (Homo sapiens, Malme-3M): 19.9 µM
IC50 [18]: 3.53 µM
IC50 [19]: 14.5 µM
IC50 (Homo sapiens, NCI-H322M): 49.1 µM
IC50 [20]: 9.61 µM
IC50 [21]: 131 µM
IC50 [22]: 13.8 µM
IC50 [23]: 9.2 µM
IC50 [24]: 6.61 µM
IC50 [25]: 34.1 µM
IC50 [26]: 0.894 µM
IC50 (Homo sapiens, Raji): 3.13 µM
IC50 (Homo sapiens, SH-SY5Y): 9.1 µM
IC50 [27]: 71.5 µM
IC50 [28]: 3.21 µM
IC50 [29]: 38.6 µM
IC50 [30]: 88.1 µM
IC50 (Homo sapiens, T98G): 3.39 µM
IC50 [31]: 0.811 µM
IC50 [32]: 137 µM
IC50 [33]: 282 µM
IC50 (NAMALWA): 1.05 µM
IC50 (RKO): 3.64 µM
IC50 (T84): 125 µM
IC50 (TT): 77.1 µM
IC50 (U266B1): 0.451 µM

[N-]=[N+]=CC(=O)CC[C@H](N)C(=O)O [DON, 6-Diazo-5-oxo-L-norleucine, reference compound]
IC50 (AGS): 13.8 µM
IC50 (C3A): 2.4 µM
IC50 (Homo sapiens, 143B): 1.06 µM
IC50 (Homo sapiens, 769-P): 1.85 µM
IC50 [1]: 15.1 µM
IC50 [2]: 5.82 µM
IC50 [3]: 67.5 µM
IC50 (Homo sapiens, Daudi): 0.388 µM
IC50 [4]: 32.3 µM
IC50 [5]: 0.72 µM
IC50 [6]: 156 µM
IC50 [7]: 0.951 µM
IC50 [8]: 10 µM
IC50 [9]: 3.61 µM
IC50 [10]: 5.94 µM
IC50 (Homo sapiens, Jurkat): 0.368 µM
IC50 [11]: 0.309 µM
IC50 [12]: 2.96 µM
IC50 [13]: 2.71 µM
IC50 [14]: 1.78 µM
IC50 [15]: 235 µM
IC50 (Homo sapiens, MDA-MB-435S): 64.4 µM
IC50 [16]: 7.52 µM
IC50 [17]: 2.38 µM
IC50 (Homo sapiens, Malme-3M): 36.6 µM
IC50 [18]: 1.66 µM
IC50 [19]: 1.87 µM
IC50 (Homo sapiens, NCI-H322M): 4.78 µM
IC50 [20]: 0.974 µM
IC50 [21]: 70.6 µM
IC50 [22]: 11.8 µM
IC50 [23]: 1.82 µM
IC50 [24]: 1.89 µM
IC50 [25]: 31 µM
IC50 [26]: 3.47 µM
IC50 (Homo sapiens, Raji): 2.04 µM
IC50 (Homo sapiens, SH-SY5Y): 4.71 µM
IC50 [27]: 145 µM
IC50 [28]: 2.03 µM
IC50 [29]: 2.18 µM
IC50 [30]: 100 µM
IC50 (Homo sapiens, T98G): 1.38 µM
IC50 [31]: 0.566 µM
IC50 [32]: 101 µM
IC50 [33]: 982 µM
IC50 (NAMALWA): 0.333 µM
IC50 (RKO): 3.22 µM
IC50 (T84): 100 µM
IC50 (TT): 42.9 µM
IC50 (U266B1): 0.413 µM
